{"source": "the supplement of paper PMC7017272", "conditions_in_all_cases": "treatment time: 3 days", "key": {"UT-SCC-24A": {"tested_on": "UT-SCC-24A", "test": "drug sensitivity score (DSS); higher = more sensitive", "protocol": "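HNSCC cell lines (500 cells/well, 384-well) were cultured on plastic, on top of (2D) or embedded (3D) in Matrigel or human leiomyoma matrix Myogel (500 ug/mL; Myogel 3D mixed with rat collagen I). Cells were treated for 3 days with 5 ten-fold concentrations of each drug, and viability was read by CellTiter-Glo. Suffixes _1/_2/_3 on drug names are replicates.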"}, "UT-SCC-106A": {"tested_on": "UT-SCC-106A", "test": "maximal % inhibition of viability relative to DMSO; higher = stronger effect", "protocol": "(§1)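 HNSCC cell lines (500 cells/well, 384-well) were cultured on plastic, on top of (2D) or embedded (3D) in Matrigel or human leiomyoma matrix Myogel (500 ug/mL; Myogel 3D mixed with rat collagen I). Cells were treated for 3 days with 5 ten-fold concentrations of each drug, and viability was read by CellTiter-Glo. Viability was normalised to DMSO and benzethonium chloride controls and fitted with the FIMM DSRT pipeline to give IC50 (nM), maximal % inhibition and DSS. Suffixes _1/_2/_3 are replicates. Only inhibition-mode (IC50) fits are kept.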"}, "UT-SCC-14": {"tested_on": "UT-SCC-14", "test": "maximal % inhibition of viability relative to DMSO; higher = stronger effect", "protocol": "as §1"}, "UT-SCC-24B": {"tested_on": "UT-SCC-24B", "test": "maximal % inhibition of viability relative to DMSO; higher = stronger effect", "protocol": "as §1"}, "UT-SCC-28": {"tested_on": "UT-SCC-28", "test": "maximal % inhibition of viability relative to DMSO; higher = stronger effect", "protocol": "as §1"}, "UT-SCC-40": {"tested_on": "UT-SCC-40", "test": "maximal % inhibition of viability relative to DMSO; higher = stronger effect", "protocol": "as §1"}, "UT-SCC-42A": {"tested_on": "UT-SCC-42A", "test": "maximal % inhibition of viability relative to DMSO; higher = stronger effect", "protocol": "as §1"}, "UT-SCC-42B": {"tested_on": "UT-SCC-42B", "test": "maximal % inhibition of viability relative to DMSO; higher = stronger effect", "protocol": "as §1"}, "UT-SCC-44": {"tested_on": "UT-SCC-44", "test": "maximal % inhibition of viability relative to DMSO; higher = stronger effect", "protocol": "as §1"}, "[1]": {"conditions": "culture condition: embedded in Matrigel"}, "[2]": {"conditions": "culture condition: embedded in Myogel + collagen I"}, "[3]": {"conditions": "culture condition: on top of Matrigel"}, "[4]": {"conditions": "culture condition: on top of Myogel"}, "[5]": {"conditions": "culture condition: plastic 2D (no matrix)"}}, "note": "± gives the standard deviation of the averaged measurements."}
{"smiles": "Cc1c(CN2CCN(C(=O)[C@H](C)O)CC2)sc2c(N3CCOCC3)nc(-c3cnc(N)nc3)nc12", "note": "[Apitolisib]", "values": [{"measurement": "drug sensitivity score", "setting": "UT-SCC-24A; [1]", "result": "12.5 ± 2.4", "unit": "DSS"}, {"measurement": "drug sensitivity score", "setting": "UT-SCC-24A; [2]", "result": "13.1 ± 1.9", "unit": "DSS"}, {"measurement": "drug sensitivity score", "setting": "UT-SCC-24A; [3]", "result": "13 ± 0.85", "unit": "DSS"}, {"measurement": "drug sensitivity score", "setting": "UT-SCC-24A; [4]", "result": "9.97 ± 0.15", "unit": "DSS"}, {"measurement": "drug sensitivity score", "setting": "UT-SCC-24A; [5]", "result": "13.5 ± 1.6", "unit": "DSS"}, {"measurement": "maximal % inhibition of viability", "setting": "UT-SCC-106A; [1]", "result": "69.8 ± 1.9", "unit": "%"}, {"measurement": "maximal % inhibition of viability", "setting": "UT-SCC-106A; [2]", "result": "60.4 ± 6.1", "unit": "%"}, {"measurement": "maximal % inhibition of viability", "setting": "UT-SCC-106A; [3]", "result": "74.7 ± 0.85", "unit": "%"}, {"measurement": "maximal % inhibition of viability", "setting": "UT-SCC-106A; [4]", "result": "66 ± 4", "unit": "%"}, {"measurement": "maximal % inhibition of viability", "setting": "UT-SCC-106A; [5]", "result": "81.2 ± 5", "unit": "%"}, {"measurement": "maximal % inhibition of viability", "setting": "UT-SCC-14; [1]", "result": "84.33 ± 0.67", "unit": "%"}, {"measurement": "maximal % inhibition of viability", "setting": "UT-SCC-14; [2]", "result": "80.8 ± 3", "unit": "%"}, {"measurement": "maximal % inhibition of viability", "setting": "UT-SCC-14; [3]", "result": "85.5 ± 3.3", "unit": "%"}, {"measurement": "maximal % inhibition of viability", "setting": "UT-SCC-14; [4]", "result": "79.4 ± 0.92", "unit": "%"}, {"measurement": "maximal % inhibition of viability", "setting": "UT-SCC-14; [5]", "result": "82.1 ± 3.8", "unit": "%"}, {"measurement": "maximal % inhibition of viability", "setting": "UT-SCC-24B; [1]", "result": "91.37 ± 0.75", "unit": "%"}, {"measurement": "maximal % inhibition of viability", "setting": "UT-SCC-24B; [2]", "result": "92.1 ± 2.7", "unit": "%"}, {"measurement": "maximal % inhibition of viability", "setting": "UT-SCC-24B; [3]", "result": "90.4 ± 1.1", "unit": "%"}, {"measurement": "maximal % inhibition of viability", "setting": "UT-SCC-24B; [4]", "result": "90.53 ± 0.42", "unit": "%"}, {"measurement": "maximal % inhibition of viability", "setting": "UT-SCC-24B; [5]", "result": "92.97 ± 0.47", "unit": "%"}, {"measurement": "maximal % inhibition of viability", "setting": "UT-SCC-28; [1]", "result": "63.5 ± 2.3", "unit": "%"}, {"measurement": "maximal % inhibition of viability", "setting": "UT-SCC-28; [2]", "result": "76.8 ± 4.2", "unit": "%"}, {"measurement": "maximal % inhibition of viability", "setting": "UT-SCC-28; [3]", "result": "69.97 ± 0.67", "unit": "%"}, {"measurement": "maximal % inhibition of viability", "setting": "UT-SCC-28; [5]", "result": "68.4 ± 2.8", "unit": "%"}, {"measurement": "maximal % inhibition of viability", "setting": "UT-SCC-40; [1]", "result": "89.1 ± 2.1", "unit": "%"}, {"measurement": "maximal % inhibition of viability", "setting": "UT-SCC-40; [2]", "result": "78.6 ± 1.7", "unit": "%"}, {"measurement": "maximal % inhibition of viability", "setting": "UT-SCC-40; [3]", "result": "87.3 ± 1.2", "unit": "%"}, {"measurement": "maximal % inhibition of viability", "setting": "UT-SCC-40; [4]", "result": "64 ± 9.4", "unit": "%"}, {"measurement": "maximal % inhibition of viability", "setting": "UT-SCC-40; [5]", "result": "74.7 ± 2.4", "unit": "%"}, {"measurement": "maximal % inhibition of viability", "setting": "UT-SCC-42A; [1]", "result": "79.9 ± 3.6", "unit": "%"}, {"measurement": "maximal % inhibition of viability", "setting": "UT-SCC-42A; [2]", "result": "75.8 ± 1.8", "unit": "%"}, {"measurement": "maximal % inhibition of viability", "setting": "UT-SCC-42A; [3]", "result": "80.1 ± 2.3", "unit": "%"}, {"measurement": "maximal % inhibition of viability", "setting": "UT-SCC-42A; [4]", "result": "75.2 ± 1.4", "unit": "%"}, {"measurement": "maximal % inhibition of viability", "setting": "UT-SCC-42A; [5]", "result": "81 ± 1.5", "unit": "%"}, {"measurement": "maximal % inhibition of viability", "setting": "UT-SCC-42B; [1]", "result": "86.7 ± 1.6", "unit": "%"}, {"measurement": "maximal % inhibition of viability", "setting": "UT-SCC-42B; [3]", "result": "76.3 ± 2.2", "unit": "%"}, {"measurement": "maximal % inhibition of viability", "setting": "UT-SCC-42B; [4]", "result": "58.6 ± 2", "unit": "%"}, {"measurement": "maximal % inhibition of viability", "setting": "UT-SCC-42B; [5]", "result": "64.5 ± 1.8", "unit": "%"}, {"measurement": "maximal % inhibition of viability", "setting": "UT-SCC-44; [1]", "result": "57.8 ± 1.6", "unit": "%"}, {"measurement": "maximal % inhibition of viability", "setting": "UT-SCC-44; [2]", "result": "65.8 ± 3.9", "unit": "%"}, {"measurement": "maximal % inhibition of viability", "setting": "UT-SCC-44; [3]", "result": "58.2 ± 1.4", "unit": "%"}]}
